Columns and labels:
human recombinant BACE1 = human recombinant BACE1 (Homo sapiens (Human), UniProt P56817); assay: In vitro enzymatic BACE1 FRET assay; type: biochemical; conditions: read-out: IC50 IP (μM) BACE1 enzyme
Outline: (§1)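 Reactions were initiated by adding 50 nM of a peptide carrying fluorophore and quencher on opposite sides of the cleavage site and ran for one hour. Tris buffer then brought the pH to neutrality, ending the reaction, and fluorescence was measured (488 nm excitation, 590 nm emission).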

Recombinant Cat D = Recombinant Cat D (Homo sapiens (Human), UniProt P07339); assay: In vitro enzymatic Cathepsin D (Cat D) FRET assay; type: biochemical; conditions: read-out: IC50 IP (μM) CatD
Recombinant Cat D, sequence (P07339 65-412): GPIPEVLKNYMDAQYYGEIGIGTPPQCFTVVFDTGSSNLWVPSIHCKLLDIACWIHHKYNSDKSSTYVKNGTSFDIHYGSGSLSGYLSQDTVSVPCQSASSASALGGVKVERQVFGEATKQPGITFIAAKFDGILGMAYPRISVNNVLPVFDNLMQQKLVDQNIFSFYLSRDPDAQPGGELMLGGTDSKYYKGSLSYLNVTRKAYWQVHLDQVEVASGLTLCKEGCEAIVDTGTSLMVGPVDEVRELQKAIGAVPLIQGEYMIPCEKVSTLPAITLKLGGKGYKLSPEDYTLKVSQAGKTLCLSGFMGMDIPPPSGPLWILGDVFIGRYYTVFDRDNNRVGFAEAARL
Outline: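 Fluorescence at 500 nm excitation and 580 nm emission reports cleavage of a quenched fluorophore–quencher peptide (20 nM) by CHO-expressed Cat D. Reactions ran one hour in 0.05 M citrate pH 3.5, 5 mM CHAPS, 10% DMSO final before a Tris stop raised pH to neutrality.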

[1] = test system: Aβ40 in conditioned medium of cells stably expressing Amyloid Precursor Protein (APP); assay: In vitro BACE-1 cell-based assay (Aβ40 sandwich ELISA); conditions: read-out: IC50 IP (μM) BACE1 cell
Outline: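 Aβ40 in supernatants measured by time-resolved fluorescence sandwich ELISA, with pAb40 as capture and biotin-6E10 as detector antibody, each incubated at 4 °C.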

human recombinant BACE2 = human recombinant BACE2 (Homo sapiens (Human), UniProt Q9Y5Z0); assay: In vitro enzymatic BACE2 FRET assay; type: biochemical; conditions: read-out: IC50 IP (μM) BACE2 enzyme
human recombinant BACE2, sequence (Q9Y5Z0 63-518): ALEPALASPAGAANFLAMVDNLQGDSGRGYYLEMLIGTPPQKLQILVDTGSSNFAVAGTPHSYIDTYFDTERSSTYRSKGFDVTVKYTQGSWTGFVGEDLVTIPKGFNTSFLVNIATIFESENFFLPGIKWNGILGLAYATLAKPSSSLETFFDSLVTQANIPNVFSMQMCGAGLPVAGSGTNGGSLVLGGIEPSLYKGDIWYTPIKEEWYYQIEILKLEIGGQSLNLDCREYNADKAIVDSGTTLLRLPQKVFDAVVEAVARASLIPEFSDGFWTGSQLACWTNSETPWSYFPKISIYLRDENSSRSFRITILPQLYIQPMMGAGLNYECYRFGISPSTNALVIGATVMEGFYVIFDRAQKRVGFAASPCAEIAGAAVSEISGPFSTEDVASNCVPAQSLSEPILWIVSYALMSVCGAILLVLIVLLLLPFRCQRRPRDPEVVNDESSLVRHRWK
Outline: as §1

human recombinant BACE1, sequence (P56817 46-501): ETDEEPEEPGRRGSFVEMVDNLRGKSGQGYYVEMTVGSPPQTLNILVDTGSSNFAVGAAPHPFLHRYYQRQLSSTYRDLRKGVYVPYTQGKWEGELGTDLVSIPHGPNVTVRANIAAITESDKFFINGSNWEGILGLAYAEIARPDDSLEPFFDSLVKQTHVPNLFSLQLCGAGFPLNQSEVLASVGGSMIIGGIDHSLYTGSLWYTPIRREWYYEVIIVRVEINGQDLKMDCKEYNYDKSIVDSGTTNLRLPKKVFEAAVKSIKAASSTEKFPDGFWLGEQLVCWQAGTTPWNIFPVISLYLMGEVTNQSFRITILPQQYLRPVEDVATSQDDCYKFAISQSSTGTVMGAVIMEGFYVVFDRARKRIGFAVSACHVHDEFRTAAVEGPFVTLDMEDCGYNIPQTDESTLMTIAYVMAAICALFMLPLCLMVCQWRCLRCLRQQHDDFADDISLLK

Row | Structure (SMILES) | IC50 (human recombinant BACE1) [µM] | IC50 (Recombinant Cat D) [µM] | IC50 [1] [µM] | IC50 (human recombinant BACE2) [µM]
1 | C=C(C)COc1cnc(C(=O)Nc2cc(F)c(F)c([C@@]3(C)N=C(N)S[C@@]4(COC)C[C@H]43)c2)cn1 [Example 1030, N-(3-((1S,5S,6S)-3-amino-1-(methoxymethyl)-5-methyl-2-thia-4-azabicyclo[4.1.0]hept-3-en-5-yl)-4,5-difluorophenyl)-5-((2-methyl-2-propen-1-yl)oxy)-2-pyrazinecarboxamide] | 0.00213 | 243 | 0.0414 | 0.072
2 | COC[C@]12C[C@H]1[C@@](C)(c1cc(NC(=O)c3cnc(OCc4cc(C)no4)cn3)cc(F)c1F)N=C(N)S2 [Example 1031, N-(3-((1S,5S,6S)-3-amino-1-(methoxymethyl)-5-methyl-2-thia-4-azabicyclo[4.1.0]hept-3-en-5-yl)-4,5-difluorophenyl)-5-((3-methyl-5-isoxazolyl)methoxy)-2-pyrazinecarboxamide] | 0.00107 | 775 | 0.152 | 0.0897
3 | COC[C@]12C[C@H]1[C@@](C)(c1cc(NC(=O)c3cnc(OCc4cc(C)on4)cn3)cc(F)c1F)N=C(N)S2 [Example 1032, N-(3-((1S,5S,6S)-3-amino-1-(methoxymethyl)-5-methyl-2-thia-4-azabicyclo[4.1.0]hept-3-en-5-yl)-4,5-difluorophenyl)-5-((5-methyl-3-isoxazolyl)methoxy)-2-pyrazinecarboxamide] | 0.00106 | 1020 | 0.0323 | 0.0465
4 | COC[C@]12C[C@H]1[C@@](C)(c1cc(NC(=O)c3cnc(OCc4ccccc4)cn3)cc(F)c1F)N=C(N)S2 [Example 1033, N-(3-((1S,5S,6S)-3-amino-1-(methoxymethyl)-5-methyl-2-thia-4-azabicyclo[4.1.0]hept-3-en-5-yl)-4,5-difluorophenyl)-5-(benzyloxy)-2-pyrazinecarboxamide] | 0.00105 | 230 | 0.101 | 0.0323
5 | COC[C@]12C[C@H]1[C@@](C)(c1cc(NC(=O)c3cnc(OCc4nccs4)cn3)cc(F)c1F)N=C(N)S2 [Example 1034, N-(3-((1S,5S,6S)-3-amino-1-(methoxymethyl)-5-methyl-2-thia-4-azabicyclo[4.1.0]hept-3-en-5-yl)-4,5-difluorophenyl)-5-(1,3-thiazol-2-ylmethoxy)-2-pyrazinecarboxamide] | 0.0014 | 1400 | 0.0109 | 0.0118
6 | COC[C@]12C[C@H]1[C@@](C)(c1cc(NC(=O)c3cnc(OCC4CC4(F)F)cn3)cc(F)c1F)N=C(N)S2 (stereo partly drawn) [Example 1035, N-(3-((1S,5S,6S)-3-amino-1-(methoxymethyl)-5-methyl-2-thia-4-azabicyclo[4.1.0]hept-3-en-5-yl)-4,5-difluorophenyl)-5-((2,2-difluorocyclopropyl)methoxy)pyrazine-2-carboxamide] | 0.00258 | 1210 | 0.022 | 0.1
7 | CC1(NC(=O)[C@]23C[C@H]2[C@@](C)(c2cc(NC(=O)c4cnc(OCC(F)(F)F)cn4)ccc2F)N=C(N)S3)CC1 [Example 1041, (1S,5S,6S)-3-amino-5-(2-fluoro-5-(5-(2,2,2-trifluoroethoxy)pyrazine-2-carboxamido)phenyl)-5-methyl-N-(1-methylcyclopropyl)-2-thia-4-azabicyclo[4.1.0]hept-3-ene-1-carboxamide] | 0.00176 | 324 | 0.00692 | 0.222
8 | CC(NC(=O)[C@]12C[C@H]1[C@@](C)(c1cc(NC(=O)c3cnc(OCC(F)(F)F)cn3)ccc1F)N=C(N)S2)C(F)F (stereo partly drawn) [Example 1045, (1S,5S,6S)-3-amino-N-(1,1-difluoropropan-2-yl)-5-(2-fluoro-5-(5-(2,2,2-trifluoroethoxy)pyrazine-2-carboxamido)phenyl)-5-methyl-2-thia-4-azabicyclo[4.1.0]hept-3-ene-1-carboxamide] | 0.00181 | 194 | 0.0738 | 0.288
9 | CC#CCCOc1cnc(C(=O)Nc2ccc(F)c([C@@]3(C)N=C(N)S[C@@]4(COC)C[C@H]43)c2)cn1 [Example 1047, N-(3-((1S,5S,6S)-3-amino-1-(methoxymethyl)-5-methyl-2-thia-4-azabicyclo[4.1.0]hept-3-en-5-yl)-4-fluorophenyl)-5-(3-pentyn-1-yloxy)-2-pyrazinecarboxamide] | 0.0054 | > 400 | 0.015 | 0.189
10 | COC[C@]12C[C@H]1[C@@](C)(c1cc(NC(=O)c3cnc(OCC4(C)CC4)cn3)ccc1F)N=C(N)S2 [Example 1049, N-(3-((1S,5S,6S)-3-amino-1-(methoxymethyl)-5-methyl-2-thia-4-azabicyclo[4.1.0]hept-3-en-5-yl)-4-fluorophenyl)-5-((1-methylcyclopropyl)methoxy)-2-pyrazinecarboxamide] | 0.0054 | > 400 | 0.0035 | 0.18
11 | COC[C@]12C[C@H]1[C@@](C)(c1cc(NC(=O)c3cnc(OCC4(C)COC4)cn3)ccc1F)N=C(N)S2 [Example 1050, N-(3-((1S,5S,6S)-3-amino-1-(methoxymethyl)-5-methyl-2-thia-4-azabicyclo[4.1.0]hept-3-en-5-yl)-4-fluorophenyl)-5-((3-methyl-3-oxetanyl)methoxy)-2-pyrazinecarboxamide] | 0.03 | > 400 | 0.035 | 1.19
12 | COC[C@]12C[C@H]1[C@@](C)(c1cc(NC(=O)c3cnc(OCCF)cn3)ccc1F)N=C(N)S2 [Example 1052, N-(3-((1S,5S,6S)-3-amino-1-(methoxymethyl)-5-methyl-2-thia-4-azabicyclo[4.1.0]hept-3-en-5-yl)-4-fluorophenyl)-5-(2-fluoroethoxy)-2-pyrazinecarboxamide] | 0.016 | > 400 | 0.0083 | 0.146
13 | COC[C@]12C[C@H]1[C@@](C)(c1cc(NC(=O)c3cnc(OCC4CC4)cn3)ccc1F)N=C(N)S2 [Example 1053, N-(3-((1S,5S,6S)-3-amino-1-(methoxymethyl)-5-methyl-2-thia-4-azabicyclo[4.1.0]hept-3-en-5-yl)-4-fluorophenyl)-5-(cyclopropylmethoxy)-2-pyrazinecarboxamide] | 0.0059 | 1420 | 0.0029 | 0.108

Compounds with a lower IC50 (human recombinant BACE1), results first:

Row | IC50 (human recombinant BACE1) [µM] | IC50 (Recombinant Cat D) [µM] | IC50 [1] [µM] | IC50 (human recombinant BACE2) [µM] | Structure (SMILES)
14 | 0.001 | 291 | 0.017 | 0.0987 | COC[C@]12C[C@H]1[C@@](C)(c1cc(NC(=O)c3cnc(OCc4nc(C)no4)cn3)cc(C)c1F)N=C(N)S2 [Example 1044, N-(3-((1S,5S,6S)-3-amino-1-(methoxymethyl)-5-methyl-2-thia-4-azabicyclo[4.1.0]hept-3-en-5-yl)-4-fluoro-5-methylphenyl)-5-((3-methyl-1,2,4-oxadiazol-5-yl)methoxy)-2-pyrazinecarboxamide]
15 | 0.000803 | 785 | 0.0467 | 0.128 | COC[C@]12C[C@H]1[C@@](C)(c1cc(NC(=O)c3cnc(OCc4nnc(C)o4)cn3)cc(F)c1F)N=C(N)S2 [Example 1037, N-(3-((1S,5S,6S)-3-amino-1-(methoxymethyl)-5-methyl-2-thia-4-azabicyclo[4.1.0]hept-3-en-5-yl)-4,5-difluorophenyl)-5-((5-methyl-1,3,4-oxadiazol-2-yl)methoxy)-2-pyrazinecarboxamide]
16 | 0.000426 | 212 | 0.00284 | 0.0555 | C[C@]1(c2cc(NC(=O)c3cnc(OCC(F)(F)F)cn3)ccc2F)N=C(N)S[C@@]2(C(=O)NCCF)C[C@H]21 [Example 1040, (1S,5S,6S)-3-amino-5-(2-fluoro-5-(5-(2,2,2-trifluoroethoxy)pyrazine-2-carboxamido)phenyl)-N-(2-fluoroethyl)-5-methyl-2-thia-4-azabicyclo[4.1.0]hept-3-ene-1-carboxamide]
17 | 0.00037 | 43.5 | 0.0162 | 0.0307 | C#CCOc1cnc(C(=O)Nc2cc(F)c(F)c([C@@]3(C)N=C(N)S[C@@]4(COCC)C[C@H]43)c2)cn1 [Example 1046, N-(3-((1S,5S,6S)-3-amino-1-(ethoxymethyl)-5-methyl-2-thia-4-azabicyclo[4.1.0]hept-3-en-5-yl)-4,5-difluorophenyl)-5-(2-propyn-1-yloxy)-2-pyrazinecarboxamide]
18 | 0.000352 | 196 | 0.0138 | 0.00931 | C#CCOc1cnc(C(=O)Nc2cc(C)c(F)c([C@@]3(C)N=C(N)S[C@@]4(COC)C[C@H]43)c2)cn1 [Example 1043, N-(3-((1S,5S,6S)-3-amino-1-(methoxymethyl)-5-methyl-2-thia-4-azabicyclo[4.1.0]hept-3-en-5-yl)-4-fluoro-5-methylphenyl)-5-(2-propyn-1-yloxy)-2-pyrazinecarboxamide]
19 | 0.000317 | 55.6 | 0.00621 | 0.0159 | C#CCOc1cnc(C(=O)Nc2cc(F)c(F)c([C@@]3(C)N=C(N)S[C@@]4(CNC(C)=O)C[C@H]43)c2)cn1 [Example 1042, N-(3-((1S,5S,6S)-1-(acetamidomethyl)-3-amino-5-methyl-2-thia-4-azabicyclo[4.1.0]hept-3-en-5-yl)-4,5-difluorophenyl)-5-(prop-2-yn-1-yloxy)pyrazine-2-carboxamide]

Source: patent publication US20160046618A1, “Cyclopropyl Fused Thiazin-2-Amine Compounds as Beta-Secretase Inhibitors and Methods of Use” (AMGEN INC., priority 2014, published 2016)
